Assay results taken from paper PMC11246995 (Frontiers in Molecular Biosciences, 2024).
Like-named read-outs stand apart in the source and are kept apart here.

Assays:
[1] = MALDI quantitative MSI (on-tissue qMSI) of rotenone in kidney tissue sections after a single oral dose; assay type: in vivo; conditions: rat, single oral 2 mg/kg; for concentration at 24 h: kidney, po, 2 mg/kg
Experimental: (§1) Rats were sacrificed 24 h after drug administration, and the kidney and liver organs were immediately removed, flash-frozen with liquid nitrogen, and stored at −80°C in a freezer for long-term storage. The administration and harvesting of organs were conducted by the Pharmalytics Corporation, accredited by the Food and Drug Administration (FDA, Philippines) for bioavailability and bioequivalence research. The animal study was reviewed and approved by the Institutional Animal Care and Use Committee (IACUC) Esteleydes Animal Laboratory and Research Facility and by the Bureau of Animal Industry—Animal Health and Welfare Division in the Philippines.
Agarose-embedded kidney and liver organs were cut longitudinally at 5 µm thickness at −20°C using a cryostat (Leica CM 1950; Leica Biosystems, Germany), and thaw-mounted onto clean glass slides. The agarose-embedded kidney or liver was trimmed up to 500 µm to remove the agarose covering a portion of the organ. Subsequently, seven layers from the outer portion towards the middle were identified with a 100 µm distance between each layer. Representative cryosections were obtained from each identified layer of the untreated and drug-treated rat kidney. The agarose surrounding the kidney or liver cryosectioned tissue was manually removed before mounting onto a glass slide. Prior to matrix coating, the glass slides mounted with thin kidney cryosections were placed in a box and kept in a vacuum desiccator cabinet overnight ([Costa et al., 2013]; [Marques et al., 2014]; [Dalisay et al., 2015]; [Suarez et al., 2023]).
Matrix solution was applied to evenly coat the entire tissue surface using a HTX M5 Sprayer (HTX Technologies, LLC, Carrboro, NC, United States). The parameter settings were optimized to avoid metabolite delocalization and compromised spatial integrity. The kidney sections were sprayed with a matrix solution of 2,5-dihydroxybenzoic acid (DHB) (Acros Organics, New Jersey, United States) at a concentration of 40 mg/mL in MeOH/H2O (1:1 v/v). Matrix solution was homogeneously applied for 6 passes in a criss-cross (CC) pattern with a nozzle temperature of 80°C, 1 mm track spacing, 1,250 mm/min nozzle speed, and 10 psi nitrogen pressure.
This method utilized an untreated kidney tissue sample which was sectioned and mounted on a clean glass slide. An on-tissue calibration curve method for qMSI was followed ([Kibbe and Muddiman, 2024]). […] Linear regression analysis was applied and inspected to confirm linearity. The untreated tissue was spotted with calibrants, allowed to dry, and coated with matrix (DHB 40 mg/mL in MeOH:H2O, 1:1 v/v). MALDI MSI data were acquired in 100 μm pixel resolution using MALDI SYNAPT XS (Waters Corporation, Manchester, United Kingdom) in positive mode. The experiment was performed with three replicates per calibrant in three independent trials. In order to address variations that may occur during data acquisition for qMSI, the ion signals were normalized to the total ion current (TIC). The intensities obtained for each concentration were plotted and approximated using the least-squares method. The limits of detection (LOD) and quantification (LOQ) were calculated by averaging the calibration curves, using signal-to-noise ratios (S/N) of 3:1 for LOD and 10:1 for LOQ. The validity of these limits was confirmed by applying serially diluted rotenone onto the tissue. In cases where the blank response has a standard deviation (SD) of zero, the SD of the lowest non-zero concentration was utilized. The SD value was divided by the slope of the calibration curve and multiplied by 3.3. The LOD was calculated using the formula LOD=3.3 x SDlowest non−zero concentration/slope of the calibration curve
To calculate the LOD and LOQ values in kidney tissue (pg/ng), the values were divided by the renal tissue density (ng/µL). […]

kidney tissues = assay: H&E histology of rotenone-treated kidney tissue sections; assay type: in vivo; conditions: rat, single oral 2 mg/kg, 24 h
Experimental: as §1
Matrix was removed from the laser-ablated kidney sections using 95% EtOH for 20 s before rehydration with distilled water. The tissue-mounted glass slides were immersed in Harris hematoxylin solution (Sigma Aldrich, St. Louis, MO, United States) for 4 min and the excess was rinsed off with deionized water twice for 1 min. Hematoxylin differentiation of tissues was then performed using 0.5% acid alcohol for 10 s. The glass slides were rinsed using deionized water for 1 min followed by soaking in ammonia solution for 1 min and rinsing in deionized water twice for 1 min. Kidney sections were then counterstained using eosin Y solution (Sigma Aldrich, St. Louis, MO, United States) for 2 min. […]

rats = conditions: ref Jiang et al. (2017); cited from earlier work

## C=C(C)[C@H]1Cc2c(ccc3c2O[C@@H]2COc4cc(OC)c(OC)cc4[C@@H]2C3=O)O1 [rotenone, Rotenone]
[1]; AVERAGE ± SD of 7 kidney tissue sections, read-out: Concentration
  concentration at 24 h: 6200 ± 3800 ng/mL
[1]; AVERAGE ± SD of 7 kidney tissue sections, read-out: Relative concentration per tissue section
  concentration at 24 h: 5860 ng/g
[1]; Kidney Tissue 1 (layer 1), read-out: Concentration
  concentration at 24 h: 3600 ng/mL
[1]; Kidney Tissue 1 (layer 1), read-out: Relative concentration per tissue section
  concentration at 24 h: 1650 ng/g
[1]; Kidney Tissue 2 (layer 2), read-out: Concentration
  concentration at 24 h: 2000 ng/mL
[1]; Kidney Tissue 2 (layer 2), read-out: Relative concentration per tissue section
  concentration at 24 h: 1100 ng/g
[1]; Kidney Tissue 3 (layer 3), read-out: Concentration
  concentration at 24 h: 2600 ng/mL
[1]; Kidney Tissue 3 (layer 3), read-out: Relative concentration per tissue section
  concentration at 24 h: 1910 ng/g
[1]; Kidney Tissue 4 (layer 4), read-out: Concentration
  concentration at 24 h: 7200 ng/mL
[1]; Kidney Tissue 4 (layer 4), read-out: Relative concentration per tissue section
  concentration at 24 h: 5950 ng/g
[1]; Kidney Tissue 5 (layer 5), read-out: Concentration
  concentration at 24 h: 7000 ng/mL
[1]; Kidney Tissue 5 (layer 5), read-out: Relative concentration per tissue section
  concentration at 24 h: 6420 ng/g
[1]; Kidney Tissue 6 (layer 6), read-out: Concentration
  concentration at 24 h: 8000 ng/mL
[1]; Kidney Tissue 6 (layer 6), read-out: Relative concentration per tissue section
  concentration at 24 h: 9210 ng/g
[1]; Kidney Tissue 7 (layer 7), read-out: Concentration
  concentration at 24 h: 12800 ng/mL
[1]; Kidney Tissue 7 (layer 7), read-out: Relative concentration per tissue section
  concentration at 24 h: 14700 ng/g
[1]; 24 h, AVERAGE ± SD of 7 kidney tissue sections
  Normalized Mass intensity by TIC: 0.0042 ± 0.0019
[1]; 24 h, Kidney Tissue 1 (layer 1)
  Normalized Mass intensity by TIC: 0.0030
[1]; 24 h, Kidney Tissue 2 (layer 2)
  Normalized Mass intensity by TIC: 0.0022
[1]; 24 h, Kidney Tissue 3 (layer 3)
  Normalized Mass intensity by TIC: 0.0025
[1]; 24 h, Kidney Tissue 4 (layer 4)
  Normalized Mass intensity by TIC: 0.0048
[1]; 24 h, Kidney Tissue 5 (layer 5)
  Normalized Mass intensity by TIC: 0.0047
[1]; 24 h, Kidney Tissue 6 (layer 6)
  Normalized Mass intensity by TIC: 0.0052
[1]; 24 h, Kidney Tissue 7 (layer 7)
  Normalized Mass intensity by TIC: 0.0076
[1]; 24 h, range over seven kidney layers
  Detected amount of rotenone drug in picograms per nanogram of tissue mass: 0.0011 to 0.0147 pg/ng
Kidney tissues
  histological alterations in kidney tissue sections stained with H&E: no discernible histological alterations were detected
rats
  oral acute toxicity: 34.10 mg/kg body weight
